Source: patent publication US20100144779A1, “Marine Alkalod Makaluvamines and Derivatives Thereof” (THE UAB RESEARCH FOUNDATION, priority 2007, published 2010)
Where two headings read alike, the source gives them in different places.

What was measured:
Assay type in all cases: cell-based, human
MCF-7 = assay: XTT cytotoxicity assay
Experimental: (§1) In initial experiments, compounds 4a-g and 7c-g were evaluated for their cytotoxicity against human breast cancer cell lines MCF-7 and MDA-MB-468 and human colon cancer cell line HCT-116. The makaluvamine compounds provided in Table 2 were also evaluated for their cytotoxicity against human breast cancer cell lines MCF-7. Compound nos. 8 and 27-33 were not evaluated in this experiment. Cells were obtained from ATCC (Manassas, Va.). For each derivative the IC50 value was determined using data generated from 2-4 independent tetrazolium-based (XTT) cytotoxicity assays (R & D Systems Inc., Minneapolis, Minn.) according to the manufacturer's instructions. […] MCF-7, MDA-MD-468 and HCT-116 cells were grown at 37 degrees C. in a humidified atmosphere with complete growth media supplemented with fetal bovine serum. Growth media was changed 2-3 times per week as required.

p21 = assay: Protein expression, Western blot in MCF-7 cells; details: 1 μM, 6 h (FIG. 4A)
Experimental: (§2) In FIG. 4A, MCF-7 cells were exposed to 1 μM concentration of the indicated compounds for 6 hours. Western blots were probed with antibodies specific for the proteins indicated. Numbers below each lane show densitometry readings for each lane as compared to control. […] Western blots were probed with antibodies specific for the proteins indicated.
(§3) To determine the disclosed compounds effect on protein expression in human breast cancer cells, cultured MCF-7 cells were exposed to various concentrations of the test compounds for 6 h (FIG. 4A) or 24 h (FIG. 4B). Cell lysates were fractionated with identical amounts of protein by SDS-PAGE and transferred to Bio-Rad trans-Blot nitrocellulose membranes (Bio-Rad Laboratories, Hercules, Calif.). The nitrocellulose membrane was incubated in blocking buffer (Tris-buffered saline containing 0.1% Tween 20 and 5% nonfat milk) for 1 h at room temperature, then with the appropriate primary antibody overnight at 4° C. or 2 h at room temperature with gentle shaking. Finally, the membrane was washed three times with the washing buffer (Tris-buffered saline containing 0.1% Tween 20) for 15 min, incubated with goat anti mouse/rabbit IgG-horseradish peroxidase-conjugated antibody (Bio-Rad) for 1 h at room temperature, and washed again (in triplicate). The protein of interest was detected by enhanced chemiluminescence reagents from PerkinElmer LAS, Inc (Boston, Mass.).

p53 = assay: Protein expression, Western blot in MCF-7 cells; details: 1 μM, 6 h (FIG. 4A)
Experimental: as §2, §3

MCF7 cells = assay: MTT growth inhibition assay; details: for IC50: Homo sapiens, read-out: Growth inhibitory activity (IC50) in MCF7 cells
Experimental: The cell lines were obtained from the American Type Culture Collection (Rockville, Md.) and were grown as follows: MCF-7 (p53 wt) breast cancer cells were grown in DMEM media containing 1 mM non-essential amino acids, Earle's BSS, 1 mM Na pyruvate, and 10 mg/L bovine insulin.
All media contained 10% FBS and 1% penicillin/streptomycin unless otherwise specified. The effects of disclosed compounds on human cancer cell growth, expressed as the percentage of cell survival, were determined by the MTT [3-(4,5-Dimethyl-2-thiazolyl)-2,5-diphenyl-2H-tetrazolium bromide] assay. Cells were grown in 96-well plates and exposed to the test compounds (0, 0.01, 0.1, 1, 10, 100 μM) for 72 hr followed by addition of 10 μL MTT solution (5 mg/mL; Sigma; St. Louis, Mo.) to each well. The plates were incubated for 2-4 hr at 37° C. The supernatant was then removed and formazan crystals were dissolved with 100 μL of DMSO. The absorbance at 570 nm was recorded with an OPTImax microplate reader (Molecular Devices; Sunnyvale, Calif.). The cell survival percentages were calculated by dividing the mean OD of compound containing wells by that of DMSO-control wells. Three separate experiments were accomplished to determine the IC50.

HCT-116 = assay: XTT cytotoxicity assay; details: read-out: Inhibition of Cancer Cell Proliferation (IC50) HCT-116
Experimental: as §1

MDA-MB-468 = assay: XTT cytotoxicity assay; details: read-out: Inhibition of Cancer Cell Proliferation (IC50) MDA-MB-468
Experimental: as §1

MDM2 = assay: Protein expression, Western blot in MCF-7 cells; details: 1 μM, 6 h (FIG. 4A)
Experimental: as §2, §3

[1] = Homo sapiens, MCF7, Table 2, XTT, read-out: IC50 (μM) MCF-7
[2] = Table 2, XTT, read-out: IC50 (μM) MCF-7
[3] = average ± standard deviation of 2-4 independent assays
[4] = XTT, average ± standard deviation of 2-4 independent assays, read-out: Inhibition of Cancer Cell Proliferation (IC50) MCF-7

| Structure (SMILES) | IC50 (MCF-7; [1]) | IC50 (MCF-7; [2]) | expression of p21 (p21) | expression of p53 (p53) | IC50 (MCF7 cells; MCF7, Table 5, MTT, 72 hr) | Growth inhibitory activity (IC50) in MCF7 cells (MCF7 cells; Table 5, MTT, 72 hr) | other results |
| --- | --- | --- | --- | --- | --- | --- | --- |
| COc1ccc(CNC2=CC3=NCCc4cn(S(=O)(=O)c5ccc(C)cc5)c(c43)C2=O)cc1OC.O=C(O)C(F)(F)F [Compound 17] | < 1 µM | 0.65 µM | increased the expression | increased the expression | 1010 nM | μM range | – |
| Cc1ccc(S(=O)(=O)n2cc3c4c2C(=O)C(NCc2ccc5c(c2)OCO5)=CC4=NCC3)cc1.O=C(O)C(F)(F)F [Compound 1] | < 1 µM | 0.78 µM | increased the expression | – | – | – | – |
| O=C(O)C(F)(F)F.O=C1C(NCCc2ccc(F)cc2)=CC2=NCCc3c[nH]c1c32 [Compound 30] | – | – | increased the expression | increased the expression | 787 nM | nM range | – |
| O=C1C(NCc2ccc(Cl)cc2)=CC2=NCCc3c[nH]c1c32 [Compound 22] | 1 to 5 µM | 1.33 µM | – | – | – | – | – |
| Cc1ccc(S(=O)(=O)n2cc3c4c2C(=O)C(NCCc2cc(Br)c(O)c(Br)c2)=CC4=NCC3)cc1 [Compound 7f] | – | – | – | – | – | – | IC50 (HCT-116; [3]): 1000 ± 200 nM; IC50 (MDA-MB-468; [3]): 1500 ± 900 nM; IC50 (MCF-7; [4]): 2.3 ± 1.1 µM |
| COC1=CC(CNC2=CC3=NCCc4cn(S(=O)(=O)c5ccc(C)cc5)c(c43)C2=O)=CC(OC)C1OC (centres unmarked) [Compound 3] | < 1 µM | 0.96 µM | – | – | – | – | – |
| COC1=CC(CNC2=CC3=NCCc4c[nH]c(c43)C2=O)=CC(OC)C1OC.O=C(O)C(F)(F)F (centres unmarked) [Compound 4] | 30.5 µM | – | – | increased the expression | 515 nM | – | – |
| COc1ccc(CCNC2=CC3=NCCc4cn(S(=O)(=O)c5ccc(C)cc5)c(c43)C2=O)cc1.O=C(O)C(F)(F)F [Compound 15] | 1 to 5 µM | 1.33 µM | decreased the expression | decreased the expression | 1050 nM | μM range | expression of MDM2 (MDM2): inhibited the expression |
| COc1ccc(CCNC2=CC3=NCCc4c[nH]c(c43)C2=O)cc1.O=C(O)C(F)(F)F [Compound 16] | – | – | decreased the expression | decreased the expression | 200 nM | nM range | expression of MDM2 (MDM2): inhibited the expression |
| Cc1ccc(CNC2=CC3=NCCc4c[nH]c(c43)C2=O)cc1 [Compound 10] | 1 to 5 µM | 1.69 µM | – | – | – | – | – |
| Cc1ccc(S(=O)(=O)n2cc3c4c2C(=O)C(NCCc2ccccc2)=CC4=NCC3)cc1 [Compound 7d] | – | – | – | – | – | – | IC50 (HCT-116; [3]): 500 nM; IC50 (MDA-MB-468; [3]): 800 ± 100 nM; IC50 (MCF-7; [4]): 1.5 ± 0.1 µM |
| COc1ccc(CCNC2=CC3=NCCc4cn(S(=O)(=O)c5ccc(C)cc5)c(c43)C2=O)cc1OC [Compound 19] | < 1 µM | > 1 µM | – | – | – | – | – |
| O=C(O)C(F)(F)F.O=C1C(NCCc2ccc(Cl)cc2)=CC2=NCCc3c[nH]c1c32 [Compound 24] | – | – | decreased the expression | increased the expression | 584 nM | nM range | expression of MDM2 (MDM2): inhibited the expression |
| Cc1ccc(S(=O)(=O)n2cc3c4c2C(=O)C(NCCc2ccc([N+](=O)[O-])cc2)=CC4=NCC3)cc1 [Compound 7] | < 1 µM | > 1 µM | – | – | – | – | – |
| Cc1ccc(S(=O)(=O)n2cc3c4c2C(=O)C(NCc2ccc(Cl)cc2)=CC4=NCC3)cc1.O=C(O)C(F)(F)F [Compound 21] | < 1 µM | 0.83 µM | decreased the expression | decreased the expression | 774 nM | nM range | expression of MDM2 (MDM2): inhibited the expression |
| COc1ccc(CNC2=CC3=NCCc4c[nH]c(c43)C2=O)cc1OC [Compound 18] | 5 to 15 µM | 5.98 µM | – | – | – | – | – |
| O=C(O)C(F)(F)F.O=C1C(NCCc2ccc(Cl)c(Cl)c2)=CC2=NCCc3c[nH]c1c32 [Compound 26] | – | – | increased the expression | increased the expression | – | nM range | IC50 (MCF7 cells; MCF7, 72 h): 495 nM |
| COc1ccc(CNC2=CC3=NCCc4cn(S(=O)(=O)c5ccc(C)cc5)c(c43)C2=O)cc1 [Compound 13] | 1 to 5 µM | 1.02 µM | – | – | – | – | – |
| Cc1ccc(S(=O)(=O)n2cc3c4c2C(=O)C(NCCc2ccc(Cl)cc2)=CC4=NCC3)cc1 [Compound 23] | 1 to 5 µM | 1.55 µM | – | – | – | – | – |
| Cc1ccc(CCNC2=CC3=NCCc4cn(S(=O)(=O)c5ccc(C)cc5)c(c43)C2=O)cc1 [Compound 11] | 1 to 5 µM | 1.47 µM | – | – | – | – | – |
| Cc1ccc(S(=O)(=O)n2cc3c4c2C(=O)C(NCCc2c[nH]c5ccccc25)=CC4=NCC3)cc1 [Compound 7g] | – | – | – | – | – | – | IC50 (HCT-116; [3]): 800 ± 300 nM; IC50 (MDA-MB-468; [3]): 1400 ± 900 nM; IC50 (MCF-7; [4]): 1.2 ± 0.03 µM |
| COc1cc([C@@H]2c3cc4c(cc3[C@@H](O[C@@H]3O[C@@H]5CO[C@@H](C)O[C@H]5[C@H](O)[C@H]3O)[C@H]3COC(=O)[C@H]23)OCO4)cc(OC)c1O [Etoposide, reference compound] | 30.5 µM | – | – | – | – | – | IC50 (HCT-116; Homo sapiens, HCT-116, average ± standard deviation of 2-4 independent assays): 1700 nM; IC50 (MDA-MB-468; Homo sapiens, MDA-MB-468, average ± standard deviation of 2-4 independent assays): 13600 nM; IC50 (MCF-7; Homo sapiens, MCF7, XTT, average ± standard deviation of 2-4 independent assays, read-out: Inhibition of Cancer Cell Proliferation (IC50) MCF-7): 35.6 µM |
| Cc1ccc(S(=O)(=O)n2cc3c4c2C(=O)C(NCCc2ccc(F)cc2)=CC4=NCC3)cc1.O=C(O)C(F)(F)F [Compound 29] | – | – | increased the expression | increased the expression | 1920 nM | μM range | – |
| Cc1ccc(CNC2=CC3=NCCc4cn(S(=O)(=O)c5ccc(C)cc5)c(c43)C2=O)cc1 [Compound 9] | 1 to 5 µM | 1.48 µM | – | – | – | – | – |
| O=C(O)C(F)(F)F.O=C1C(NCc2ccc3c(c2)OCO3)=CC2=NCCc3c[nH]c1c32 [Compound 2] | 5 to 15 µM | 5.22 µM | decreased the expression | increased the expression | 809 nM | nM range | – |
| O=C(O)C(F)(F)F.O=C1C(NCCc2ccc([N+](=O)[O-])cc2)=CC2=NCCc3c[nH]c1c32 [Compound 8] | – | – | decreased the expression | decreased the expression | 427 nM | nM range | expression of MDM2 (MDM2): inhibited the expression |
| Cc1ccc(CCNC2=CC3=NCCc4c[nH]c(c43)C2=O)cc1.O=C(O)C(F)(F)F [Compound 12] | – | – | decreased the expression | increased the expression | 833 nM | nM range | expression of MDM2 (MDM2): inhibited the expression |
| Cc1ccc(S(=O)(=O)n2cc3c4c2C(=O)C(NCCc2ccc5c(c2)OCO5)=CC4=NCC3)cc1.O=C(O)C(F)(F)F [Compound 5] | – | – | increased the expression | increased the expression | 1620 nM | μM range | – |
